# According to patent US8530489B2 (Vertex Pharmaceuticals Incorporated, priority 2006, dated 2013):
# Molecular target: PLK1 (Homo sapiens, UniProt P53350)
# Test: PLK1 Inhibition Assay I (radioactive-phosphate incorporation)
# Format: biochemical
# Settings: Ki(app); PLK1 Inhibition Assay I or II (table does not say which)
# Procedure, shortened: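 Ki(app) values came from non-linear regression of initial rates after background subtraction, with phosphopeptide measured by phosphocellulose filter binding and scintillation counting. PLK1 at 2 nM was preincubated with compound (typically from 10 μM, 2-fold dilutions) for 10 min, then run 240 min at 25° C with 350 μM [γ-33P]ATP and 450 μM peptide substrate in HEPES pH 7.5 buffer.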
# Chain of PLK1 (P53350 whole entry): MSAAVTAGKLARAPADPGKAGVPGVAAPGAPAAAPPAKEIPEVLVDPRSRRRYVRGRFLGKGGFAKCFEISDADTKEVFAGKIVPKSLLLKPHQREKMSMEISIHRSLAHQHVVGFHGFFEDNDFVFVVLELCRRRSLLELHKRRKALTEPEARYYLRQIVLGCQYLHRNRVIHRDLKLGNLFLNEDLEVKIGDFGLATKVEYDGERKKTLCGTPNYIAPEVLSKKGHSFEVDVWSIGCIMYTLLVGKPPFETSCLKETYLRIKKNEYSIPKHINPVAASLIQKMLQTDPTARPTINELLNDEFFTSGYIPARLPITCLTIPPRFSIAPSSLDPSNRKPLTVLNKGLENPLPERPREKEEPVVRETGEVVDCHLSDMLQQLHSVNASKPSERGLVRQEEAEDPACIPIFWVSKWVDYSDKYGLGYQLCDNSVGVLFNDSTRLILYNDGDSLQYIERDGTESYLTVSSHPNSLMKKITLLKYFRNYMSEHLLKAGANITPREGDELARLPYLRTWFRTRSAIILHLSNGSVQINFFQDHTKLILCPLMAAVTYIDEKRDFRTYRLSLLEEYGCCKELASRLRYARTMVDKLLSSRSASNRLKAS
row,Ki,SMILES
1,< 3 nM,"CC(Nc1ncc(C#N)c(-c2c[nH]c3ncc(C(F)(F)F)cc23)n1)C1CCN(S(C)(=O)=O)CC1 (centres unmarked) [Compound I-150, 2-(1-(1-(methylsulfonyl)piperidin-4-yl)ethylamino)-4-(5-(trifluoromethyl)-1H-pyrrolo[2,3-b]pyridin-3-yl)pyrimidine-5-carbonitrile]"
2,< 3 nM,"CNc1ccc(C(C)Nc2ncc(C#N)c(-c3c[nH]c4ncc(C(F)(F)F)cc34)n2)cn1 (centres unmarked) [Compound I-151, 2-(1-(6-(methylamino)pyridin-3-yl)ethylamino)-4-(5-(trifluoromethyl)-1H-pyrrolo[2,3-b]pyridin-3-yl)pyrimidine-5-carbonitrile]"
3,< 3 nM,"COC(=O)N1CCC(C(C)Nc2ncc(C#N)c(-c3c[nH]c4ncc(C(F)(F)F)cc34)n2)CC1 (centres unmarked) [Compound I-152, methyl 4-(1-(5-cyano-4-(5-(trifluoromethyl)-1H-pyrrolo[2,3-b]pyridin-3-yl)pyrimidin-2-ylamino)ethyl)piperidine-1-carboxylate]"
4,< 3 nM,"CCS(=O)(=O)N1CCC(C(C)Nc2ncc(C#N)c(-c3c[nH]c4ncc(C(F)(F)F)cc34)n2)CC1 (centres unmarked) [Compound I-153, 2-(1-(1-(ethylsulfonyl)piperidin-4-yl)ethylamino)-4-(5-(trifluoromethyl)-1H-pyrrolo[2,3-b]pyridin-3-yl)pyrimidine-5-carbonitrile]"
5,3 to 40 nM,"C[C@@H](Nc1ncc(C#N)c(-c2c[nH]c3ncc(C(F)(F)F)cc23)n1)c1ccc(OC2CCN(C)CC2)cc1 [Compound I-154, 2-((R)-1-(4-(1-methylpiperidin-4-yloxy)phenyl)ethylamino)-4-(5-(trifluoromethyl)-1H-pyrrolo[2,3-b]pyridin-3-yl)pyrimidine-5-carbonitrile]"
6,< 3 nM,"CC(Nc1ncc(C#N)c(-c2c[nH]c3ncc(C(F)(F)F)cc23)n1)c1ccc(S(C)(=O)=O)cc1 (centres unmarked) [Compound I-155, 2-(1-(4-(methylsulfonyl)phenyl)ethylamino)-4-(5-(trifluoromethyl)-1H-pyrrolo[2,3-b]pyridin-3-yl)pyrimidine-5-carbonitrile]"
7,< 3 nM,"CC(Nc1ncc(C#N)c(-c2c[nH]c3ncc(C(F)(F)F)cc23)n1)C1CCN(C(=O)N(C)C)CC1 (centres unmarked) [Compound I-157, 4-(1-(5-cyano-4-(5-(trifluoromethyl)-1H-pyrrolo[2,3-b]pyridin-3-yl)pyrimidin-2-ylamino)ethyl)-N,N-dimethylpiperidine-1-carboxamide]"
8,< 3 nM,"CC(Nc1ncc(C#N)c(-c2c[nH]c3ncc(C(F)(F)F)cc23)n1)C1CCN(S(=O)(=O)C2CC2)CC1 (centres unmarked) [Compound I-158, 2-(1-(1-(cyclopropylsulfonyl)piperidin-4-yl)ethylamino)-4-(5-(trifluoromethyl)-1H-pyrrolo[2,3-b]pyridin-3-yl)pyrimidine-5-carbonitrile]"
9,< 3 nM,"CC(Nc1ncc(C#N)c(-c2c[nH]c3ncc(C(F)(F)F)cc23)n1)C1CCN(C(=O)C2CC2)CC1 (centres unmarked) [Compound I-159, 2-(1-(1-(cyclopropanecarbonyl)piperidin-4-yl)ethylamino)-4-(5-(trifluoromethyl)-1H-pyrrolo[2,3-b]pyridin-3-yl)pyrimidine-5-carbonitrile]"
10,< 3 nM,"CNC(=O)N1CCC(C(C)Nc2ncc(C#N)c(-c3c[nH]c4ncc(C(F)(F)F)cc34)n2)CC1 (centres unmarked) [Compound I-160, 4-(1-(5-cyano-4-(5-(trifluoromethyl)-1H-pyrrolo[2,3-b]pyridin-3-yl)pyrimidin-2-ylamino)ethyl)-N-methylpiperidine-1-carboxamide]"
11,< 3 nM,"C[C@H](Nc1ncc(C#N)c(-c2c[nH]c3ncc(C(F)(F)F)cc23)n1)c1ccc(O[C@H]2CCN(C)C2)cc1 [Compound I-161, 2-((S)-1-(4-((S)-1-methylpyrrolidin-3-yloxy)phenyl)ethylamino)-4-(5-(trifluoromethyl)-1H-pyrrolo[2,3-b]pyridin-3-yl)pyrimidine-5-carbonitrile]"
12,< 3 nM,"CC(Nc1ncc(C#N)c(-c2c[nH]c3ncc(C(F)(F)F)cc23)n1)c1ccc(N2CCC(O)CC2)nc1 (centres unmarked) [Compound I-162, 2-(1-(6-(4-hydroxypiperidin-1-yl)pyridin-3-yl)ethylamino)-4-(5-(trifluoromethyl)-1H-pyrrolo[2,3-b]pyridin-3-yl)pyrimidine-5-carbonitrile]"
13,< 3 nM,"CNC(=O)c1ccc([C@@H](C)Nc2ncc(C#N)c(-c3c[nH]c4ncc(C(F)(F)F)cc34)n2)cc1 [Compound I-163, 4-((1R)-1-(5-cyano-4-(5-(trifluoromethyl)-1H-pyrrolo[2,3-b]pyridin-3-yl)pyrimidin-2-ylamino)ethyl)-N-methylbenzamide]"
14,3 to 40 nM,"CNC(=O)c1ccc([C@H](C)Nc2ncc(C#N)c(-c3c[nH]c4ncc(C(F)(F)F)cc34)n2)cc1 [Compound I-164, 4-((1S)-1-(5-cyano-4-(5-(trifluoromethyl)-1H-pyrrolo[2,3-b]pyridin-3-yl)pyrimidin-2-ylamino)ethyl)-N-methylbenzamide]"
15,3 to 40 nM,"Cc1ccc(S(=O)(=O)N2CCC(C(C)Nc3ncc(C#N)c(-c4c[nH]c5ncc(C(F)(F)F)cc45)n3)CC2)cc1 (centres unmarked) [Compound I-165, 2-(1-(1-tosylpiperidin-4-yl)ethylamino)-4-(5-(trifluoromethyl)-1H-pyrrolo[2,3-b]pyridin-3-yl)pyrimidine-5-carbonitrile]"
16,< 3 nM,"CC(Nc1ncc(C#N)c(-c2c[nH]c3ncc(C(F)(F)F)cc23)n1)C1CCN(CC#N)CC1 (centres unmarked) [Compound I-166, 2-(1-(1-(cyanomethyl)piperidin-4-yl)ethylamino)-4-(5-(trifluoromethyl)-1H-pyrrolo[2,3-b]pyridin-3-yl)pyrimidine-5-carbonitrile]"
17,< 3 nM,"C[C@@H](Nc1ncc(C#N)c(-c2c[nH]c3ncc(C(F)(F)F)cc23)n1)c1ccc(NS(=O)(=O)C2CC2)cc1 [Compound I-168, N-(4-((1R)-1-(5-cyano-4-(5-(trifluoromethyl)-1H-pyrrolo[2,3-b]pyridin-3-yl)pyrimidin-2-ylamino)ethyl)phenyl)cyclopropanesulfonamide]"
18,< 3 nM,"CCS(=O)(=O)Nc1ccc([C@@H](C)Nc2ncc(C#N)c(-c3c[nH]c4ncc(C(F)(F)F)cc34)n2)cc1 [Compound I-169, N-(4-((1R)-1-(5-cyano-4-(5-(trifluoromethyl)-1H-pyrrolo[2,3-b]pyridin-3-yl)pyrimidin-2-ylamino)ethyl)phenyl)ethanesulfonamide]"
19,< 3 nM,"CCNC(=O)c1ccc([C@@H](C)Nc2ncc(C#N)c(-c3c[nH]c4ncc(C(F)(F)F)cc34)n2)cc1 [Compound I-170, 4-((1R)-1-(5-cyano-4-(5-(trifluoromethyl)-1H-pyrrolo[2,3-b]pyridin-3-yl)pyrimidin-2-ylamino)ethyl)-N-ethylbenzamide]"
20,3 to 40 nM,"C[C@@H](Nc1ncc(C#N)c(-c2c[nH]c3ncc(C(F)(F)F)cc23)n1)c1ccc(C(=O)NC2CC2)cc1 [Compound I-171, 4-((1R)-1-(5-cyano-4-(5-(trifluoromethyl)-1H-pyrrolo[2,3-b]pyridin-3-yl)pyrimidin-2-ylamino)ethyl)-N-cyclopropylbenzamide]"
21,3 to 40 nM,"CC(C)NC(=O)c1ccc([C@@H](C)Nc2ncc(C#N)c(-c3c[nH]c4ncc(C(F)(F)F)cc34)n2)cc1 [Compound I-172, 4-((1R)-1-(5-cyano-4-(5-(trifluoromethyl)-1H-pyrrolo[2,3-b]pyridin-3-yl)pyrimidin-2-ylamino)ethyl)-N-isopropylbenzamide]"
22,< 3 nM,"CCC(Nc1ncc(C#N)c(-c2c[nH]c3ncc(C(F)(F)F)cc23)n1)C1CCN(CC#N)CC1 (centres unmarked) [Compound I-173, 2-(1-(1-(cyanomethyl)piperidin-4-yl)propylamino)-4-(5-(trifluoromethyl)-1H-pyrrolo[2,3-b]pyridin-3-yl)pyrimidine-5-carbonitrile]"
23,< 3 nM,"CCC(Nc1ncc(C#N)c(-c2c[nH]c3ncc(C(F)(F)F)cc23)n1)C1CCN(C(C)=O)CC1 (centres unmarked) [Compound I-174, 2-(1-(1-acetylpiperidin-4-yl)propylamino)-4-(5-(trifluoromethyl)-1H-pyrrolo[2,3-b]pyridin-3-yl)pyrimidine-5-carbonitrile]"
24,< 3 nM,"CCC(Nc1ncc(C#N)c(-c2c[nH]c3ncc(C(F)(F)F)cc23)n1)C1CCN(S(=O)(=O)CC)CC1 (centres unmarked) [Compound I-175, 2-(1-(1-(ethylsulfonyl)piperidin-4-yl)propylamino)-4-(5-(trifluoromethyl)-1H-pyrrolo[2,3-b]pyridin-3-yl)pyrimidine-5-carbonitrile]"
25,< 3 nM,"C[C@@H](Nc1ncc(C#N)c(-c2c[nH]c3ncc(C(F)(F)F)cc23)n1)c1ccc(C(N)=O)cc1 [Compound I-176, 4-((1R)-1-(5-cyano-4-(5-(trifluoromethyl)-1H-pyrrolo[2,3-b]pyridin-3-yl)pyrimidin-2-ylamino)ethyl)benzamide]"
26,< 3 nM,"C[C@@H](Nc1ncc(C#N)c(-c2c[nH]c3ncc(C(F)(F)F)cc23)n1)c1ccc(NS(C)(=O)=O)c(F)c1 [Compound I-177, N-(4-((1R)-1-(5-cyano-4-(5-(trifluoromethyl)-1H-pyrrolo[2,3-b]pyridin-3-yl)pyrimidin-2-ylamino)ethyl)-2-fluorophenyl)methanesulfonamide]"
27,3 to 40 nM,"C#CCN1CCC(C(C)Nc2ncc(C#N)c(-c3c[nH]c4ncc(C(F)(F)F)cc34)n2)CC1 (centres unmarked) [Compound I-178, 2-(1-(1-(prop-2-ynyl)piperidin-4-yl)ethylamino)-4-(5-(trifluoromethyl)-1H-pyrrolo[2,3-b]pyridin-3-yl)pyrimidine-5-carbonitrile]"
28,< 3 nM,"C[C@@H](Nc1ncc(C#N)c(-c2c[nH]c3ncc(C(F)(F)F)cc23)n1)[C@H]1CC[C@H](O)CC1 [Compound I-179, 2-((R)-1-((1r,4R)-4-hydroxycyclohexyl)ethylamino)-4-(5-(trifluoromethyl)-1H-pyrrolo[2,3-b]pyridin-3-yl)pyrimidine-5-carbonitrile]"
29,< 3 nM,"C[C@@H](Nc1ncc(C#N)c(-c2c[nH]c3ncc(C(F)(F)F)cc23)n1)[C@H]1CC[C@@H](O)CC1 [Compound I-180, 2-((R)-1-((1s,4S)-4-hydroxycyclohexyl)ethylamino)-4-(5-(trifluoromethyl)-1H-pyrrolo[2,3-b]pyridin-3-yl)pyrimidine-5-carbonitrile]"
